According to patent US12187722B2, “Small molecule inhibitors of TEAD transcription factors” (The General Hospital Corporation, priority 2019, dated 2025):
Values joined by “and” are separate entries in the source; they are usually repeats but may differ in a detail not shown here. Equal values may be shown once.

Target: TEAD2 (Homo sapiens (Human), UniProt Q15562)
Assay: In vitro palmitoylation (TEAD2 autopalmitoylation, streptavidin blot)
Assay type: biochemical
Conditions: compound at 10 μM; Table 2
Method in brief: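 Autopalmitoylation read by streptavidin-HRP Western blot after CuSO4/TBTA/TCEP click with 100 μM biotin-azide, 1 h RT, with His-HRP probed separately. Before that, TEAD2 protein (GST or His6, 500 ng) given compound for 15 min then 1 μM alkyne palmitoyl-CoA for 30 min; percent inhibition versus DMSO-treated samples.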

Chain of TEAD2 (Q15562 whole entry): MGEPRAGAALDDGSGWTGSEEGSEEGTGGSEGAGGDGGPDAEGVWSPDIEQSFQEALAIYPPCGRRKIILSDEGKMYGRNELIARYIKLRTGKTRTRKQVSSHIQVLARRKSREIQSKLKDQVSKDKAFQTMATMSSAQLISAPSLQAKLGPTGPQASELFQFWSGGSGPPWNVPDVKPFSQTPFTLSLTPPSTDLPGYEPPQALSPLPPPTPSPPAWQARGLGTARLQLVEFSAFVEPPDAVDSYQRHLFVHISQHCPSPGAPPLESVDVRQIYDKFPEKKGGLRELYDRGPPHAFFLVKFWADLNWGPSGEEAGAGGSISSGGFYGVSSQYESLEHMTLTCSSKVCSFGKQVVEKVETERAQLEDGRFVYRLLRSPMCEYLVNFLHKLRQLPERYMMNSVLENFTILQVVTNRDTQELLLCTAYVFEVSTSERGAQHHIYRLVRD

inhibition at 10 µM [%] | % of inhibition of TEAD2 palmitoylation at 10 μM | Compound
97 | – | O=C(O)c1cccnc1Nc1ccc(Nc2ccc(C34CC5CC(CC(C5)C3)C4)cc2Cl)nc1 [Compound 91]
90 | – | O=C(O)c1cccnc1Nc1ccc(C23CC4CC(CC(C4)C2)C3)cc1Br [Compound 92]
72 | – | O=C(O)C1CNCC1Nc1ccc(Nc2ccc(C34CC5CC(CC(C5)C3)C4)cc2Cl)cc1 (centres unmarked) [Compound 93]
91 | – | CC(C)(C)OC(=O)NC(Cc1ccc(Nc2ccc(C34CC5CC(CC(C5)C3)C4)cc2Cl)cc1)C(=O)O (centres unmarked) [Compound 94]
97 | – | NC(Cc1ccc(Nc2ccc(C34CC5CC(CC(C5)C3)C4)cc2Cl)cc1)C(=O)O (centres unmarked) [Compound 95]
96 | – | O=C(O)c1cccnc1Nc1cccc(C23CC4CC(CC(C4)C2)C3)c1 [Compound 96]
60 | – | O=C(O)c1cccc2nc(-c3cccc(C45CC6CC(CC(C6)C4)C5)c3)[nH]c12 [Compound 97]
89 | – | O=C(NC12CC3CC(CC(C3)C1)C2)c1ccc(Nc2ccc(Nc3ccccc3C(=O)O)cc2)cc1 [Compound 98]
85 | – | CN(c1ccc(Nc2ccc(C34CC5CC(CC(C5)C3)C4)cc2)cc1)c1ccccc1C(=O)O [Compound 99]
62 | – | O=C(O)Cn1ncc2cc(Nc3ccc(C45CC6CC(CC(C6)C4)C5)cc3Cl)ccc21 [Compound 101]
77 | – | CC1(C)OC(C(=O)O)C(C(=O)Nc2ccc(Nc3ccc(C45CC6CC(CC(C6)C4)C5)cc3Cl)cc2)O1 (centres unmarked) [Compound 102]
53 | – | O=C(O)C1CCCN1Cc1ccc(Nc2ccc(C34CC5CC(CC(C5)C3)C4)cc2Cl)cc1 (centres unmarked) [Compound 103]
80 | – | O=C(O)c1cccnc1Nc1ccc(Nc2cccc(C34CC5CC(CC(C5)C3)C4)c2)cc1 [Compound 104]
96 | – | Clc1cc(C23CC4CC(CC(C4)C2)C3)ccc1Nc1ccc(Cn2ccnc2)cc1 [Compound 105]
0 | – | O=C(O)c1cccnc1N1CCN(Cc2ccc(C34CC5CC(CC(C5)C3)C4)cc2Cl)CC1 [Compound 106]
14 | – | O=C(O)c1cccnc1CN1CCN(Cc2ccc(C34CC5CC(CC(C5)C3)C4)cc2Cl)CC1 [Compound 107]
86 | – | O=C(O)Cn1cnc2cc(Nc3ccc(C45CC6CC(CC(C6)C4)C5)cc3Cl)ccc21 [Compound 108]
85 | – | O=C(O)Cn1cc2cc(Nc3ccc(C45CC6CC(CC(C6)C4)C5)cc3Cl)ccc2n1 [Compound 110]
80 | – | O=C(O)c1cccnc1Nc1cccc(Nc2cccc(C34CC5CC(CC(C5)C3)C4)c2)c1 [Compound 111]
100 | – | CC(C)c1ccccc1Cc1cccc(Nc2ncccc2C(=O)O)c1 [Compound 113]
98 | – | O=C(O)c1cccnc1Nc1cccc(Nc2ccc(C34CC5CC(CC(C5)C3)C4)cc2Cl)c1 [Compound 114]
67 | – | O=C(O)c1cncc(Nc2ccc(Nc3ccc(C45CC6CC(CC(C6)C4)C5)cc3Cl)cc2)n1 [Compound 115]
91 | – | O=C(O)c1cncc(Nc2ccc(Nc3ccc(C45CC6CC(CC(C6)C4)C5)cc3Cl)cc2)c1 [Compound 116]

inhibition at 10 µM [%] | % of inhibition of TEAD2 palmitoylation at 10 μM | Compound
9 | – | O=C(O)c1cc(Nc2ccc(Nc3ccc(C45CC6CC(CC(C6)C4)C5)cc3Cl)cc2)ccn1 [Compound 117]
78 | – | O=C(O)Cn1ncc2ccc(Nc3ccc(C45CC6CC(CC(C6)C4)C5)cc3Cl)cc21 [Compound 118]
79 | – | CC1(C)OC(C(=O)O)C(C(=O)Nc2cc(Nc3ccc(C45CC6CC(CC(C6)C4)C5)cc3Cl)cc(C(F)(F)F)c2)O1 (centres unmarked) [Compound 120]
80 | – | O=C(O)c1cnn(Cc2ccc(Nc3ccc(C45CC6CC(CC(C6)C4)C5)cc3Cl)cc2)c1 [Compound 121]
95 | – | O=C(O)c1cccnc1Cc1ccc(Nc2ccc(C34CC5CC(CC(C5)C3)C4)cc2Cl)cc1 [Compound 122]
88 | – | O=C(O)C1CCCN(C(=O)c2ccc(Nc3ccc(C45CC6CC(CC(C6)C4)C5)cc3Cl)cc2)C1 (centres unmarked) [Compound 123]
86 | – | O=C(O)c1cccn1Cc1ccc(Nc2ccc(C34CC5CC(CC(C5)C3)C4)cc2Cl)cc1 [Compound 124]
86 | – | O=C(O)Cn1ccc2ccc(Nc3ccc(C45CC6CC(CC(C6)C4)C5)cc3Cl)cc21 [Compound 126]
27 | – | O=C(O)c1cn(Cc2cccc(Nc3ccc(C45CC6CC(CC(C6)C4)C5)cc3Cl)c2)cn1 [Compound 127]
92 | – | O=C(O)c1cncn1Cc1cccc(Nc2ccc(C34CC5CC(CC(C5)C3)C4)cc2Cl)c1 [Compound 128]
41 | – | O=C(O)c1cccnc1Nc1ncn(Cc2ccc(C34CC5CC(CC(C5)C3)C4)cc2Cl)n1 [Compound 129]
100 | – | O=C(O)Cn1ccc2cc(Nc3ccc(C45CC6CC(CC(C6)C4)C5)cc3Cl)ccc21 [Compound 130]
37 | – | O=C(O)c1cccnc1Nc1ccc2c(c1)N(Cc1ccc(C34CC5CC(CC(C5)C3)C4)cc1Cl)CC2 [Compound 131]
100 | – | CN(c1cccc(N(C)c2ncccc2C(=O)O)c1)c1ccc(C23CC4CC(CC(C4)C2)C3)cc1Cl [Compound 132]
93 | – | CN(c1cnn(Cc2ccc(C34CC5CC(CC(C5)C3)C4)cc2Cl)c1)c1ncccc1C(=O)O [Compound 133]
0 | – | O=C(O)c1cccnc1Nc1cn(Cc2ccc(C34CC5CC(CC(C5)C3)C4)cc2Cl)cn1 [Compound 134]
100 | – | CN(c1cccc(Nc2ccc(C34CC5CC(CC(C5)C3)C4)cc2Cl)c1)c1ncccc1C(=O)O [Compound 135]
99 | – | O=C(O)c1cccnc1Oc1ccc(Nc2ccc(C34CC5CC(CC(C5)C3)C4)cc2Cl)cc1 [Compound 136]
99 | – | O=C(O)c1cccnc1CN1CCC(Nc2ccc(C34CC5CC(CC(C5)C3)C4)cc2Cl)C1 (centres unmarked) [Compound 137]
24 | – | CN(c1ccc(Nc2ccc(C34CC5CC(CC(C5)C3)C4)cc2)cc1)c1ncccc1C(=O)O [Compound 138]
99 | – | CN(c1ccc(C23CC4CC(CC(C4)C2)C3)cc1)c1cccc(N(C)c2ncccc2C(=O)O)c1 [Compound 140]
95 | – | O=C(O)c1cccnc1CN1CCCC(Nc2ccc(C34CC5CC(CC(C5)C3)C4)cc2Cl)C1 (centres unmarked) [Compound 141]
65 | – | CN(c1ccc(Nc2ncccc2C(=O)O)cc1)c1ccc(C23CC4CC(CC(C4)C2)C3)cc1Cl [Compound 142]

inhibition at 10 µM [%] | % of inhibition of TEAD2 palmitoylation at 10 μM | Compound
22 | – | O=C(O)C1CCCN(Cc2ccc(Nc3ccc(C45CC6CC(CC(C6)C4)C5)cc3Cl)cc2)C1 (centres unmarked) [Compound 143]
100 | – | CN(c1cnc(Nc2ccc(C34CC5CC(CC(C5)C3)C4)cc2Cl)cn1)c1ccccc1C(=O)O [Compound 144]
– | 61% and 84% | O=C(Nc1ccc(C23CC4CC(CC(C4)C2)C3)cc1)c1ccc(Nc2ncccc2C(=O)O)cc1 [Compound 145]
70 | – | CN(c1ccc(C(=O)Nc2ccc(C34CC5CC(CC(C5)C3)C4)cc2)cc1)c1ncccc1C(=O)O [Compound 147]
56 | 69% | O=C(Nc1ccc(C23CC4CC(CC(C4)C2)C3)cc1)c1ccc(Nc2cccc(C(=O)O)n2)cc1 [Compound 148]
40 | – | CN(C(=O)c1ccc(N(C)c2ccccc2C(=O)O)cc1)c1ccc(C23CC4CC(CC(C4)C2)C3)cc1 [Compound 149]
100 | – | O=C(O)c1cccc(Nc2cccc(Nc3ccc(C45CC6CC(CC(C6)C4)C5)cc3Cl)c2)n1 [Compound 150]
101 | – | O=C(O)c1cncc(Nc2cc(C(F)(F)F)cc3[nH]c4ccc(C56CC7CC(CC(C7)C5)C6)cc4c23)c1 [Compound 151]
102 | – | CN(c1ccc(C23CC4CC(CC(C4)C2)C3)cc1)c1cc(N(C)c2ncccc2C(=O)O)cc(C(F)(F)F)c1 [Compound 152]
100 | – | O=C(O)c1cncc(Nc2cc(Nc3ccc(C45CC6CC(CC(C6)C4)C5)cc3Cl)cc(C(F)(F)F)c2)c1 [Compound 153]
58 | 43% | O=C(O)c1cccc(Nc2cc(C(F)(F)F)cc3[nH]c4ccc(C56CC7CC(CC(C7)C5)C6)cc4c23)n1 [Compound 154]
99 | – | CN(c1ccc(Oc2ccc(C34CC5CC(CC(C5)C3)C4)cc2)cc1)c1ccccc1C(=O)O [Compound 155]
92 | – | CN(c1ccc(C23CC4CC(CC(C4)C2)C3)cc1)c1ccc(N(C)c2ncccc2C(=O)O)cc1C(F)(F)F [Compound 156]
80 | – | O=C(Nc1ccc(Nc2ccccc2C(=O)O)cc1)c1ccc(C23CC4CC(CC(C4)C2)C3)cc1 [Compound 157]
100 | – | CN(c1ccc(N(C)c2ccc(C34CC5CC(CC(C5)C3)C4)cc2)c(C(F)(F)F)c1)c1ccccc1C(=O)O [Compound 158]
41 | – | CCCCN(CCCC)C(=O)c1ccc(Nc2ccccc2C(=O)O)cc1 [Compound 159]
84 | – | CN(c1ccc(C23CC4CC(CC(C4)C2)C3)cc1)c1ccc(N(C)c2ccccc2C(=O)O)cn1 [Compound 160]
85 | – | CCN(c1ccc(N(CC)c2ccccc2C(=O)O)cc1)c1ccc(C23CC4CC(CC(C4)C2)C3)cc1 [Compound 163]
20 | – | CC(=O)N(c1ccc(N(C(C)=O)c2ccccc2C(=O)O)cc1)c1ccc(C23CC4CC(CC(C4)C2)C3)cc1 [Compound 164]
– | 85% | CN(c1ccc(Nc2ccc(C34CC5CC(CC(C5)C3)C4)cc2)cc1)c1ccccc1C(=O)O [Compound 165]
98 | – | O=C(O)c1ccccc1Nc1ccc(Oc2ccc(C34CC5CC(CC(C5)C3)C4)cc2Cl)cc1 [Compound 166]
43 | – | O=C(NC12CC3CC(CC(C3)C1)C2)c1ccc(Nc2ccccc2C(=O)O)cc1 [Compound 167]
42 | – | CCCCN(CCCC)Cc1ccc(Nc2ccc(Nc3ccccc3C(=O)O)cc2)cc1 [Compound 169]
